Data reported in PMC6525171, “15-deoxy-Δ^12,14-Prostaglandin J2 inhibits human soluble epoxide hydrolase by a dual orthosteric and allosteric mechanism” (Communications Biology, 2019).
Numbering of substitutions follows the chain as printed.

Assays:
Assay type in all cases: biochemical
[1] = molecular target: T1, human soluble epoxide hydrolase (hsEH CTD) (Homo sapiens, UniProt P34913, C423S); assay: HPLC, UV and CD of purified covalent adduct; PHOME activity of adduct vs apoprotein
T1 construct: gene EPHX2; C-terminal domain, T230-M555
T1 sequence (P34913 230-555 C423S): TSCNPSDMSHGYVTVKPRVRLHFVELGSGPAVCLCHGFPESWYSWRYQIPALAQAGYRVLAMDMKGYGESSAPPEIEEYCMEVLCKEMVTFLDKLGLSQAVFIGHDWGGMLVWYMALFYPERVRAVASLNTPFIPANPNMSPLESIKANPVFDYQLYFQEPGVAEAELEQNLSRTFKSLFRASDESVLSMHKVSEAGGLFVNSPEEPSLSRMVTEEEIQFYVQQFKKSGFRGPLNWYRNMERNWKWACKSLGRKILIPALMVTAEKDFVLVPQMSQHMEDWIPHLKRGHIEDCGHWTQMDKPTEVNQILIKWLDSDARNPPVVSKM

[2] = molecular target: T2, human soluble epoxide hydrolase (hsEH CTD) (Homo sapiens, UniProt P34913, C522S); assay: as above
T2 construct: gene EPHX2; C-terminal domain, T230-M555
T2 sequence (P34913 230-555 C522S): T1 sequence (P34913 230-555 C423S) with S194C, C293S

[3] = molecular target: T3, human soluble epoxide hydrolase (hsEH CTD) (Homo sapiens, UniProt P34913); assay: X-ray crystal structure ([…] Å, non-covalent complex), STD-NMR; ESI-MS and LC-MS/MS of covalent adducts; Ki from PHOME fluorescence assay
T3 construct: gene EPHX2; C-terminal domain, T230-M555
T3 sequence (P34913 230-555): T1 sequence (P34913 230-555 C423S) with S194C

[4] = molecular target: T4, human soluble epoxide hydrolase (hsEH CTD) (Homo sapiens, UniProt P34913, C423S/C522S); assay: PHOME spectrofluorimetric assay, Ki by Cheng-Prusoff
T4 construct: gene EPHX2; C-terminal domain, T230-M555
T4 sequence (P34913 230-555 C423S/C522S): T1 sequence (P34913 230-555 C423S) with C293S

CCCCC/C=C/C=C1/C(=O)C=C[C@@H]1C/C=C/CCCC(=O)O [15d-PGJ2]
HPLC, UV and CD of purified covalent adduct; PHOME activity of adduct vs apoprot [1]: with the single modification of C423S and C522S mutants inhibiting the enzyme to a lesser extent
HPLC, UV and CD of purified covalent adduct; PHOME activity of adduct vs apoprot [2]: with the single modification of C423S and C522S mutants inhibiting the enzyme to a lesser extent
Ki [3]: 13 µM
Ki [4]: 8.56 µM
